{"source": "patent US8394793B2", "about": "“Therapeutic agent for inflammatory bowel disease” (Nippon Shinyaku Co., Ltd., priority 2008, dated 2013)", "tested_on": "colitis resulted by administration of an aqueous solution of dextran sulfate in rats", "test": "Dextran sulfate-induced colitis in rats (Test Example 1)", "type": "in vivo, rat", "settings": "F 334 rats, 3% dextran sulfate in drinking water for 5 days, 5 mg/kg orally twice daily", "experimental": "Rats (males; eight weeks age) of an F 334 strain (Japan SLC) were allowed free access to a 3% aqueous solution of dextran sulfate for five days and, after that, they were allowed free access to tap water for one day. The test substance was orally administered twice daily at the start of drinking of a 3% aqueous solution of dextran sulfate. After six days from the initiation of the administration, the large intestine was excised and its length was measured. With regard to the symptom score, (1) stool consistency, (2) fecal blood and (3) degree of body weight reduction from the previous day were evaluated in five stages as shown in the following Table 1 and a mean value thereof was calculated. As to the test substance, the compound A (5 mg/kg) was used. The test substance was administered by suspending in a 0.5% aqueous solution of methyl cellulose. A 0.5% aqueous solution of methyl cellulose was administered to the control group. Ten rats per group were used. [table] With regard to shortening of the large intestine, significant difference from the control group was tested by a t-test (*: p<0.05). With regard to the symptom score of colitis, significant difference from the control group was tested by a t-test (##: p<0.01)."}
{"molecule": "CC(C)N(CCCCOCC(=O)NS(C)(=O)=O)c1cnc(-c2ccccc2)c(-c2ccccc2)n1", "note": "[compound A, 2-{4-[N-(5,6-diphenylpyrazin-2-yl)-N-isopropylamino]butyl-oxy}-N-(methylsulfonyl)acetamide]", "values": [{"measurement": "shortening of large intestine (length of the large intestine)", "setting": "large intestine excised after six days, t-test vs control p<0.05, FIG. 1", "value": "significantly suppressed"}, {"measurement": "symptom score of colitis (stool consistency, fecal blood, body weight reduction)", "setting": "t-test vs control p<0.01, FIG. 2", "value": "significantly suppressed"}]}
